Reference: patent US20250091994A1, “RAS/RAF BINDING INHIBITOR COMPOUND” (NATIONAL UNIVERSITY CORPORATION KOBE UNIVERSITY, priority 2021, published 2025)

Key:
[1] = tested on: acute lymphoblastic leukemia cells CCRF-CEM (K-RasG12D); test: Cell growth inhibition, suspension cells CCRF-CEM; assay type: cell-based; conditions: Homo sapiens, 72 hours; for inhibition at 1 µM: read-out: CCRF-CEM (KRasG12D) % inhibition at 1 μM; for inhibition at 3.2 µM: read-out: CCRF-CEM (KRasG12D) % inhibition at 3.2 μM (***)
Procedure: (§1) The cell growth inhibitory activity of the compound of the present invention on human culture cells having active-type mutation in Ras was evaluated by the below-mentioned method using suspension cancer cells {acute lymphoblastic leukemia cells CCRF-CEM (K-RasG12D), promyelocytic leukemia cells HL60 (N-RasQ61L), acute lymphoblastic leukemia cells MOLT4 (N-RasG12C), and small cell lung cancer cells SHP77 (K-RasG12V)} and adherent cancer cells {large bowel cancer cells SW480 (K-RasG12V) and large bowel cancer cell SW620 (K-RasG12V)}.
(§2) (Case of suspension cells) The cells suspended in a medium containing 0.5% (v/v) fetal bovine serum (FBS) and each compound solution (final DMSO concentration: 1%) were seeded on a 96-well plate (2 to 4×10^4 cells/well), and the resulting mixture was then cultured at 37° C. in the presence of 5% CO2 for 72 hours.
(§3) Thereafter, the number of viable cells was measured using Cell Counting Reagent (Nacalai Tesque) in accordance with the manufacturer's instructions. Inhibition by the test compound was determined according to the following equation: […]

[2] = biological target: GTPγS-bound human HRasG12V / human c-Raf-1 Ras binding domain (RBD) (Homo sapiens (Human), UniProt P01112, G12V); test: Ras-Raf binding inhibition ELISA; conditions: for IC50: anti-HRas antibody C-20, read-out: ELISA IC50 (μM): 1st Ab_C-20
Procedure, shortened: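 GST-c-Raf-1 RBD (aa 50-131) immobilized on glutathione plates, then GTPγS-loaded full-length HRasG12V added with compound (final 10% DMSO), 1 h at 30 °C, pH 7.4 Tris buffer. Bound Ras detected by anti-HRas antibody (C-20 or 259) and HRP secondary, TMB read at OD450; IC50 from inhibition.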

[3] = tested on: acute lymphoblastic leukemia cells MOLT4 (N-RasG12C); test: Cell growth inhibition, suspension cells MOLT4; assay type: cell-based; conditions: Homo sapiens, MOLT-4, 72 hours; for inhibition at 10 µM: read-out: MOLT-4 (NRasG12C) % inhibition at 10 μM (**); for inhibition at 3.2 µM: read-out: MOLT-4 (NRasG12C) % inhibition at 3.2 μM (***)
Procedure: as §1, §2, §3

[4] = tested on: promyelocytic leukemia cells HL60 (N-RasQ61L); test: Cell growth inhibition, suspension cells HL60; assay type: cell-based; conditions: Homo sapiens, HL-60, 72 hours; for inhibition at 1 µM: read-out: HL-60 (NRasQ61L) % inhibition at 1 μM; for inhibition at 10 µM: read-out: HL-60 (NRasQ61L) % inhibition at 10 μM (***); for inhibition at 3.2 µM: read-out: HL-60 (NRasQ61L) % inhibition at 3.2 μM (****)
Procedure, shortened: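 Suspension cells, 2 to 4×10^4 per well, cultured with compound in medium with 0.5% FBS (1% DMSO final) for 72 h at 37° C, 5% CO2. Viable cells counted with Cell Counting Reagent; inhibition calculated relative to controls.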

[5] = tested on: phosphorylated ERK (pERK) in HL60 cells; test: Ras-Raf signaling inhibition at culture cell level, pERK; assay type: cell-based; conditions: Homo sapiens, HL-60; HL60 (N-RasQ61L), 1 μM test compound, 3 hours
Procedure: (§4) The Ras-Raf signaling inhibitory activity of the compound of the present invention at a culture cell level was evaluated by the following method.
(§5) The HL60 cells described in Test Example 2 suspended in a medium containing 0.5% (v/v) FBS with each compound solution (final DMSO concentration: 1%), were seeded on a 12-well plate (2 to 4×10^5 cells/well), and the resulting mixture was then cultured at 37° C. in the presence of 5% CO2 for 3 hours.
(§6) After completion of the cell culture, proteins were extracted from the cells, using RIPA Buffer (Nacalai Tesque) containing a mixture of protease inhibitors and phosphatase inhibitors. An equivalent amount of protein was separated by standard SDS-PAGE and was then transferred onto a PVDF membrane. In order to detect the activation (phosphorylation) of MEK and ERK, downstream molecules of the Ras-Raf signaling pathway, the membrane was probed with 1000-fold diluted primary antibodies {phosphorylated MEK (pMEK: #9121), phosphorylated ERK (pERK: #9101), total MEK (tMEK: #9122), and total ERK (tERK: 9102); all from Cell signaling}, and then with a 1000-fold diluted horseradish peroxidase-labeled secondary antibody against rabbit immunoglobulin G. The immunoreactive signals were colored with EzWestLumi One (ATTO), and were then detected by Fusion FX (Vilber). Signal intensity was quantified by pixel counting. Inhibition by the test compound was determined according to the following equation: […]

[6] = tested on: phosphorylated MEK (pMEK) in HL60 cells; test: Ras-Raf signaling inhibition at culture cell level, pMEK; assay type: cell-based; conditions: Homo sapiens, HL-60; HL60 (N-RasQ61L), 1 μM test compound, 3 hours
Procedure: as §4, §5, §6

[7] = tested on: large bowel cancer cell SW620 (K-RasG12V); test: Cell growth inhibition, adherent cells SW620; assay type: cell-based; conditions: Homo sapiens, SW-620, 72 hours; for inhibition at 3.2 µM: read-out: SW620 (KRasG12V) % inhibition at 3.2 μM (***)
Procedure, shortened: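 Adherent cells, 1 to 2×10^4 per well, grown overnight in 10% FBS, then exposed to compound in low-serum medium […] for 72 h at 37° C. Viable cells counted with Cell Counting Reagent; inhibition calculated relative to controls.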

[8] = tested on: small cell lung cancer cells SHP77 (K-RasG12V); test: Cell growth inhibition, suspension cells SHP77; assay type: cell-based; conditions: Homo sapiens, 3.2 μM (**), 72 hours, read-out: SHP77 (KRasG12V) % inhibition at 3.2 μM (**)
Procedure: as §1, §2, §3

Sequence of GTPγS-bound human HRasG12V / human c-Raf-1 Ras binding domain (RBD) (P01112 whole entry G12V, the tested form may be a part): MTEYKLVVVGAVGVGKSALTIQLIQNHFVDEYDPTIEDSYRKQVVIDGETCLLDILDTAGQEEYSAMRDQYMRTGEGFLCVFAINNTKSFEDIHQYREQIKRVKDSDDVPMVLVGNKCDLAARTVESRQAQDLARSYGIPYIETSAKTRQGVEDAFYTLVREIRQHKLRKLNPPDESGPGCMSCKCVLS

Work on CC(=O)N1C(=Cc2ccc(OCC(=O)N3CCOCC3)c(F)c2)C(=O)c2ccccc21 (racemic) [Example 16, 1-acetyl-2-(3-fluoro-4-(2-morpholino-2-oxoethoxy)-benzylidene)-indolin-3-one] yielded an inhibition at 1 µM [1] of 56%, an IC50 [2] of 7.6 µM and an inhibition at 10 µM [3] of 100%.
CC(=O)N1C(=Cc2cc(F)c(OCC(=O)N3CCOCC3)c(F)c2)C(=O)c2ccccc21 (racemic) [Example 19, 1-acetyl-2-(3,5-difluoro-4-(2-morpholino-2-oxoethoxy)-benzylidene)-indolin-3-one] showed an inhibition at 1 µM [1] of 83%, an IC50 [2] of 5.8 µM and an inhibition at 10 µM [3] of 100%.
COCCOc1ccc(/C=C2/C(=O)c3ccccc3N2C(C)=O)cc1OC [Example 11, 1-acetyl-2-(3-methoxy-4-(2-methoxyethoxy)-benzylidene)-indolin-3-one] gave an inhibition at 1 µM [1] of 55%, an inhibition at 10 µM [2] of 54% and an inhibition at 10 µM [3] of 100%.
CCOc1cc(/C=C2/C(=O)c3ccccc3N2C(C)=O)ccc1OCC(N)=O [Example 13, 2-(4-((1-acetyl-3-oxoindolin-2-ylidene)methyl)-2-ethoxyphenoxy)-acetamide] was tested, and the inhibition at 1 µM [1] was 33% and the inhibition at 10 µM [3] was 100%.
For COc1cc(/C=C2/C(=O)c3ccccc3N2C(C)=O)ccc1OS(C)(=O)=O [Example 21, 4-((1-acetyl-3-oxoindolin-2-ylidene)methyl)-2-methoxyphenyl methanesulfonate], the inhibition at 1 µM [1] was 97%, the inhibition at 3.3 µM ([3]; 3.3 μM (*), read-out: MOLT-4 (NRasG12C) % inhibition at 3.3 μM (*)) was 100% and the inhibition at 1 µM [4] was 43%.
Compound COc1cc(/C=C2/C(=O)c3ccccc3N2C(C)=O)ccc1OCS(C)(=O)=O [Example 24, 1-acetyl-2-(3-methoxy-4-((methylsulfon-yl)methoxy)-benzylidene)-indolin-3-one] has an inhibition at 1 µM [1] of 88% and an inhibition at 1 µM ([3]; 1 μM, read-out: MOLT-4 (NRasG12C) % inhibition at 1 μM) of 54%.
With CC(=O)N1/C(=C/c2nc3cc(C(=O)N4CCOCC4)ccc3s2)C(=O)c2ccccc21 [Example 48, (E)-1-acetyl-2-((5-(morpholine-4-carbonyl)benzo [d]thiazol-2-yl)-methylene)indolin-3-one] the inhibition at 1 µM [1] was 69%, the inhibition at 1 µM [5] was 96% and the inhibition at 1 µM [6] was 81%. It also gave an inhibition at 10 µM [4] of 100%.
CC(=O)N1/C(=C/c2nc3ccc(C(=O)N4CCOCC4)cc3s2)C(=O)c2ccccc21 [Example 58, (E)-1-acetyl-2-((6-(morpholine-4-carbonyl)benzo [d]thiazol-2-yl)-methylene)indolin-3-one] gave an inhibition at 1 µM [1] of 45%, an inhibition at 1 µM [5] of 100% and an inhibition at 1 µM [6] of 72%. It also gave an inhibition at 10 µM [4] of 99%.
CCCCOc1cc(/C=C2/C(=O)c3ccccc3N2C(C)=O)nc2ccc(C(=O)N3CCOCC3)cc12 [Example 84, (Z)-1-acetyl-2-((4-butoxy-6-(morpholine-4-carbonyl)quinolin-2-yl)methylene)-indolin-3-one] showed an inhibition at 1 µM [5] of 63%, an inhibition at 1 µM [6] of 58% and an inhibition at 1 µM ([7]; 1 μM, read-out: SW620 (KRasG12V) % inhibition at 1 μM) of 90%. It also gave an inhibition at 1 µM [4] of 96%.
Work on CC(=O)N1/C(=C\c2cc(CN3CCOCC3)c3ccccc3n2)C(=O)c2ccccc21 [Example 181, (Z)-1-acetyl-2-((4-(morpholinometh-yl)quinolin-2-yl)-methylene)indolin-3-one] yielded an inhibition at 3.2 µM [1] of 98.2%, an IC50 [2] of 2.4 µM and an inhibition at 3.2 µM [7] of 74.3%. For the same compound, the inhibition at 3.2 µM [3] was 96.3% and the inhibition at 3.2 µM [4] was 96.7%.
CC(=O)N1/C(=C\c2ccc3cc(C(=O)N4CCOCC4)cc(-c4cccc5ccccc45)c3n2)C(=O)c2ccccc21 [Example 197, 1-acetyl-2-((6-(morpholine-4-carbonyl)-8-(naphthalen-1-yl)-quinolin-2-yl)-methylene)indolin-3-one] gave an inhibition at 10 µM [2] of 35.3%, an inhibition at 3.2 µM [8] of 65.7% and an inhibition at 3.2 µM [7] of 35.5%.
CC(=O)N1/C(=C\c2cc(CNC3CCOCC3)c3ccccc3n2)C(=O)c2ccccc21 [Example 208, (Z)-1-acetyl-2-((4-(((tetrahydro-2H-pyran-4-yl)-amino)methyl)-quinolin-2-yl)-methylene)indolin-3-one] showed an inhibition at 3.2 µM [1] of 97%, an inhibition at 1 µM [2] of 46.7% and an IC50 [2] of 1.3 µM. It also gave an inhibition at 3.2 µM [7] of 81.1%, an inhibition at 3.2 µM [3] of 96.2% and an inhibition at 3.2 µM [4] of 95.1%.
CC(=O)N1CCc2cc(-c3cc(/C=C4/C(=O)c5ccccc5N4C(C)=O)nc4ccc(CNC5CCOCC5)cc34)ccc2C1 [Example 209, (Z)-1-acetyl-2-((4-(2-acetyl-1,2,3,4-tetrahydro-isoquinolin-6-yl)-6-(((tetrahydro-2H-pyran-4-yl)-amino)methyl)-quinolin-2-yl)-methylene)indolin-3-one] showed an inhibition at 3.2 µM [1] of 97.8%, an inhibition at 1 µM [2] of 71.2% and an inhibition at 3.2 µM [7] of 94.4%. The inhibition at 3.2 µM [3] was 96.7% and the inhibition at 3.2 µM [4] was 96.7%.
For CC(=O)N1/C(=C\c2cc(-c3cccc(-c4cnn(C)c4)c3)c3cc(CNC4CCOCC4)ccc3n2)C(=O)c2ccccc21 [Example 210, (Z)-1-acetyl-2-((4-(3-(1-methyl-1H-pyrazol-4-yl)-phenyl)-6-(((tetra-hydro-2H-pyran-4-yl)amino)meth-yl)quinolin-2-yl)-methylene)indolin-3-one], the inhibition at 3.2 µM [1] was 97.5%, the inhibition at 1 µM [2] was 66.9% and the IC50 [2] was 0.6 µM. The inhibition at 3.2 µM [7] was 78%, the inhibition at 3.2 µM [3] was 96.2% and the inhibition at 3.2 µM [4] was 97.3%.
